This passage reports Kd results from paper PMC7340540, “Crystal structures and calorimetry reveal catalytically relevant binding mode of coproporphyrin and coproheme in coproporphyrin ferrochelatase” (The FEBS journal, 2019).

SMILES strings stand for the structures.

In this test the target is T1, LmCpfC (Listeria monocytogenes, UniProt Q8Y565).
T1 construct: gene cpfC; full length in pET21a(+) (BamHI/XhoI), C-terminal 6xHis-tag kept, vector N-terminal residues; E. coli BL21 Gold; 37 kDa theoretical, 38 kDa by MALS; monomer
T1 sequence (Q8Y565 1-309): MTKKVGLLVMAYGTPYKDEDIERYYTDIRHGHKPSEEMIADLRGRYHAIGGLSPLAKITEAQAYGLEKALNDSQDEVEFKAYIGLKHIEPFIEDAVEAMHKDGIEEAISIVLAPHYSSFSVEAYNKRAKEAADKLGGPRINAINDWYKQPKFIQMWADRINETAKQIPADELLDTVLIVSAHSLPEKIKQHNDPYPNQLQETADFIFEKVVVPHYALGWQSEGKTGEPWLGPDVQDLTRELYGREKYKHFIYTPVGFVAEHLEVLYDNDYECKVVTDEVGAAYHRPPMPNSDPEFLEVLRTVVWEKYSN
Kind of test: stopped-flow UV-vis, […] nm, KD = koff/kon. The class given is binding.

Usually Kd stands for a measure of binding affinity in units of concentration. Low values mean higher affinity, high ones lower affinity.

Compound `CC1=C(CCC(=O)O)c2cc3nc(cc4[nH]c(cc5[nH]c(cc1n2)c(C)c5CCC(=O)O)c(CCC(=O)O)c4C)C(CCC(=O)O)=C3C` [coproporphyrin III] showed a dissociation constant Kd of 2000 nM.
